Results on 10 molecules are retold here after ChEMBL document CHEMBL5465560, “Selectivity Literature for EUbOPEN Chemogenomic Library” (2024).

The target of experiment [1] is CDK3/Cyclin E (Homo sapiens) (UniProt P24864+Q00526). In words: Selectivity interaction (LanthaScreen Eu Kinase Binding Assay) EUB0001632a CDK3. The class given is protein-complex assay. To be noted: at 10 µM. On the technique in general: TR-FRET usually uses a lanthanide donor and a delayed reading to cut background.
Experiment [2] deals with T1, Interleukin-1 receptor-associated kinase 4 (Homo sapiens) (UniProt Q9NWZ3).
T1 sequence (whole entry): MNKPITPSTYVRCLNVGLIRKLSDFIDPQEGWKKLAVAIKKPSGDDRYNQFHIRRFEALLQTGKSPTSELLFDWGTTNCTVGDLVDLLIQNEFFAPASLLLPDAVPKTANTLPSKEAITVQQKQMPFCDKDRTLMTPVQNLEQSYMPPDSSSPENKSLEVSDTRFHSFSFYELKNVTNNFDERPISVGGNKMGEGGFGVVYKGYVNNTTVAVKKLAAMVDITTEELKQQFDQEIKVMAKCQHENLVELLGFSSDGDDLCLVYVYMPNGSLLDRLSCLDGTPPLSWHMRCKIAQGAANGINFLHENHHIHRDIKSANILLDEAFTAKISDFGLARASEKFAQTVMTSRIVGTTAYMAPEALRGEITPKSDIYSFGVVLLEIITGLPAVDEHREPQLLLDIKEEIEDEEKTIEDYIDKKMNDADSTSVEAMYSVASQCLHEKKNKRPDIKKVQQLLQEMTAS
In words: Selectivity interaction (Ambit KINOMEscan and KiNATiv profiling in Jurkat cells) EUB0000090b IRAK4. Format: cell-based. To be noted: at 1 µM.

Experiment [3] addresses Casein kinase I isoform gamma-1 (Homo sapiens) (UniProt Q9HCP0). In words: Selectivity interaction (KinomeScan (DiscoverX)) EUB0000607a CSNK1G1. To be noted: at 10 µM.
For experiment [4], the target named is T2, Serine/threonine-protein kinase 17A (Homo sapiens) (UniProt Q9UEE5).
T2 sequence (whole entry): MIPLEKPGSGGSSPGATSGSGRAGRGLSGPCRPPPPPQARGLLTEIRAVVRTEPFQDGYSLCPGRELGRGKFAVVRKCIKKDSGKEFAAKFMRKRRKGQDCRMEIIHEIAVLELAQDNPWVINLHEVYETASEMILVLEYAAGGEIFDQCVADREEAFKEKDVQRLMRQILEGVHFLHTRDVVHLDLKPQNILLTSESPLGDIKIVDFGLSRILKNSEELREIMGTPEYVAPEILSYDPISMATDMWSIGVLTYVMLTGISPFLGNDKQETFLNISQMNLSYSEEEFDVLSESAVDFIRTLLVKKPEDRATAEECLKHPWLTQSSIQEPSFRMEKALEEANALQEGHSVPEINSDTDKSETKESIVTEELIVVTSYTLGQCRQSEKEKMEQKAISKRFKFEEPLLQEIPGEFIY
The settings on record: at 10 µM.

The target in experiment [5] is Serine/threonine-protein kinase 32C (Homo sapiens) (UniProt Q86UX6). The experiment is described as follows: Selectivity interaction (KinomeScan (DiscoverX)) EUB0000666a STK32C. The settings on record: at 10 µM.
For experiment [6], the target named is Dual specificity mitogen-activated protein kinase kinase 1 (Homo sapiens, UniProt Q02750). The experiment is described as follows: Selectivity interaction (KinomeScan (DiscoverX)) EUB0001619a MAP2K1. The settings on record: at 1 µM.
Experiment [7] addresses T3, 5-hydroxytryptamine receptor 3A (Homo sapiens) (UniProt P46098).
T3 sequence (whole entry): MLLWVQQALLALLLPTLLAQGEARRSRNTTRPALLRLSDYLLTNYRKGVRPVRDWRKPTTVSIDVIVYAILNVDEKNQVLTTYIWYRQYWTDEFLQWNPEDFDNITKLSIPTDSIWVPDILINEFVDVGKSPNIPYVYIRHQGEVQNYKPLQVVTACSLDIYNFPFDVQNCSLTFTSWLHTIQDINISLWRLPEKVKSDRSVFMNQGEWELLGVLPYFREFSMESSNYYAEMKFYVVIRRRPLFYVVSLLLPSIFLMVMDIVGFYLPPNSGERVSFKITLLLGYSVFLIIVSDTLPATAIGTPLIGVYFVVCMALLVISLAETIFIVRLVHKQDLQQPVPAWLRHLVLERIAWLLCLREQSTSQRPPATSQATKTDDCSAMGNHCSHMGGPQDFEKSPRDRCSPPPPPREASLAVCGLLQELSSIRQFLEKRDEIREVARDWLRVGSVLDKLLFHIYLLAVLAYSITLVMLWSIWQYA
In words: Selectivity interaction (Panel of kinases, GPCRs, ion channels and transporters (enzymatic assay)) EUB0000223bCl HTR3A.

In experiment [8] the test system is Epidermal growth factor receptor (Homo sapiens), P00533 [UNDEFINED MUTATION]. In words: (§1) Selectivity interaction (KinomeScan (DiscoverX)) EUB0000092b EGFR. The settings on record: at 10 µM.
The test system of experiment [9] is Epidermal growth factor receptor (Homo sapiens), P00533 [L858R]. Described as §1. To be noted: at 10 µM.
In experiment [10] the test system is Epidermal growth factor receptor (Homo sapiens), P00533 [T790M]. Described as §1. To be noted: at 10 µM.
Experiment [11] deals with Epidermal growth factor receptor (Homo sapiens, UniProt P00533). Described as §1. The settings on record: at 10 µM.
In experiment [12] the test system is Epidermal growth factor receptor (Homo sapiens), P00533 [L858R,T790M]. The description is as §1. The settings on record: at 10 µM.
The target of experiment [13] is T4, Serine/threonine-protein kinase Nek11 (Homo sapiens) (UniProt Q8NG66).
T4 sequence (whole entry): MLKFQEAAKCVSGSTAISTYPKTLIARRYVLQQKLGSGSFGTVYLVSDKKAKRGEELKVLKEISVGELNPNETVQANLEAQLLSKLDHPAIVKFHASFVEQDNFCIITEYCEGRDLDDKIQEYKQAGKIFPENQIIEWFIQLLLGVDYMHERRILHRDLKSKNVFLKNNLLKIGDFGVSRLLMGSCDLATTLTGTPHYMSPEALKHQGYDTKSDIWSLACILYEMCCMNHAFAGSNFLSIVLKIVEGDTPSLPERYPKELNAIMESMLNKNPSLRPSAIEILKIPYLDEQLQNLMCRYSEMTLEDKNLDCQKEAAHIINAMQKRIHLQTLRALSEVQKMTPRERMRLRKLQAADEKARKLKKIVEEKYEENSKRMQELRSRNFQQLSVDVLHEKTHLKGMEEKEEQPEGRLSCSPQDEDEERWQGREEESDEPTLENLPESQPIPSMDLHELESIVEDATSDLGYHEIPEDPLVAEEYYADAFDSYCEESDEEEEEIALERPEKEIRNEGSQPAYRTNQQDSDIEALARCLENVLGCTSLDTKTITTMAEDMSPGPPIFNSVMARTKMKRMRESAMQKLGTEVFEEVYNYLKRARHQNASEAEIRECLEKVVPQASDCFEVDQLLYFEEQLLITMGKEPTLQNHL
In words: Selectivity interaction (KinomeScan (DiscoverX)) EUB0000045b NEK11.

For experiment [14], the system named is eIF-2-alpha kinase GCN2 (Homo sapiens), Q9P2K8 [S808G]. The experiment is described as follows: Selectivity interaction (KinomeScan (DiscoverX)) EUB0000618a EIF2AK4. The settings on record: at 10 µM.
Chain of eIF-2-alpha kinase GCN2 (Homo sapiens), Q9P2K8 [S808G] (Q9P2K8 whole entry S808G): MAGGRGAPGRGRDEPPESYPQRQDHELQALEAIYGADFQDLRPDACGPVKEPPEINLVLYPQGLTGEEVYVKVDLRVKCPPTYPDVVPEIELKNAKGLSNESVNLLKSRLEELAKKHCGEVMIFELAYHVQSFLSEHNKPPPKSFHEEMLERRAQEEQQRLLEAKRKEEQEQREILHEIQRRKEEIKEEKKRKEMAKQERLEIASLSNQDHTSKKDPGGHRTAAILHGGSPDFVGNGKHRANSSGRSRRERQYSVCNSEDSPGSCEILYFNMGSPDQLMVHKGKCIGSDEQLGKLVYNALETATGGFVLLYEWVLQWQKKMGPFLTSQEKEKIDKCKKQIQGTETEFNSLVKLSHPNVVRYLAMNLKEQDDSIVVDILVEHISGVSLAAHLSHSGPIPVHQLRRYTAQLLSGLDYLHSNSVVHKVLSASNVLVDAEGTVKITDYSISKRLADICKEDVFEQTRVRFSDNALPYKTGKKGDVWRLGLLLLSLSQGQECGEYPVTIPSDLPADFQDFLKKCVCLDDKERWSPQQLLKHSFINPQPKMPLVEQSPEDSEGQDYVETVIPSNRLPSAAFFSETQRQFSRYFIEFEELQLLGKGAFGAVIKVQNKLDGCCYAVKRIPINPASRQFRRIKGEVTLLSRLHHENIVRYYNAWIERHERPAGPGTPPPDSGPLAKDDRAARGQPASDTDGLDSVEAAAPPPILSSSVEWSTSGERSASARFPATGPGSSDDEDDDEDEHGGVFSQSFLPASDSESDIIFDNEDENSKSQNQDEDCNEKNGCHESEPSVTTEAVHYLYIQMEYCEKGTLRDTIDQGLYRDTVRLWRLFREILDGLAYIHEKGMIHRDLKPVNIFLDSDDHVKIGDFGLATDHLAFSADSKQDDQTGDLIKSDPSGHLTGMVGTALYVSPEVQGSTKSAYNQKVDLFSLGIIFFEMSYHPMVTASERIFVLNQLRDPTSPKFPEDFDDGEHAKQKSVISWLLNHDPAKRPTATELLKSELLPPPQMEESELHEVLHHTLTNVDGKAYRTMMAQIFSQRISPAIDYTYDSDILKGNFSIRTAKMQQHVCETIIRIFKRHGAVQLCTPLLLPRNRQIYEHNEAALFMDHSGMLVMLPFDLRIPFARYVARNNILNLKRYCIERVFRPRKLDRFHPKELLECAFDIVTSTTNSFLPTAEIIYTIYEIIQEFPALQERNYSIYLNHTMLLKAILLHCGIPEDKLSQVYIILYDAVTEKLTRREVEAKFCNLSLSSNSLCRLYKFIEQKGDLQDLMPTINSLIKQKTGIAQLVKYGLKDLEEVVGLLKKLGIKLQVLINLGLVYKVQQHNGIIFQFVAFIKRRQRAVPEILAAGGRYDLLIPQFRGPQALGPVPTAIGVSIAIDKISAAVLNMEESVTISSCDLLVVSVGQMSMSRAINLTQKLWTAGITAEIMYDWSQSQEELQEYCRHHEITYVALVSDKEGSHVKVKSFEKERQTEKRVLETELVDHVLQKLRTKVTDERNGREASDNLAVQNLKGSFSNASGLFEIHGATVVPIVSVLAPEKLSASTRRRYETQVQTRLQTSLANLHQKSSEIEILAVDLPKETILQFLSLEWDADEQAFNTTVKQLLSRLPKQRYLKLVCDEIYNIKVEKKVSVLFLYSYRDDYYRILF

Chain of Dual specificity mitogen-activated protein kinase kinase 1 (Q02750 whole entry): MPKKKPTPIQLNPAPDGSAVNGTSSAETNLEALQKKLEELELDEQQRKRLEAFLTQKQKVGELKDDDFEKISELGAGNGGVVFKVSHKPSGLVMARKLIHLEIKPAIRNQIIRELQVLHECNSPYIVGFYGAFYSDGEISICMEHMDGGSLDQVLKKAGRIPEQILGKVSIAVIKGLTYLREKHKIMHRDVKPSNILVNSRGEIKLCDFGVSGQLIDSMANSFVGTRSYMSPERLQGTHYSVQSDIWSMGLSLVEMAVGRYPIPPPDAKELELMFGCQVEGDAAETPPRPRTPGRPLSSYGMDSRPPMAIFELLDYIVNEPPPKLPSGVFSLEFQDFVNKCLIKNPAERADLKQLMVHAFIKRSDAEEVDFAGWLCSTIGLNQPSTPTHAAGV
Chain of Epidermal growth factor receptor (Homo sapiens), P00533 [L858R,T790M] (P00533 whole entry T790M/L858R, looked up): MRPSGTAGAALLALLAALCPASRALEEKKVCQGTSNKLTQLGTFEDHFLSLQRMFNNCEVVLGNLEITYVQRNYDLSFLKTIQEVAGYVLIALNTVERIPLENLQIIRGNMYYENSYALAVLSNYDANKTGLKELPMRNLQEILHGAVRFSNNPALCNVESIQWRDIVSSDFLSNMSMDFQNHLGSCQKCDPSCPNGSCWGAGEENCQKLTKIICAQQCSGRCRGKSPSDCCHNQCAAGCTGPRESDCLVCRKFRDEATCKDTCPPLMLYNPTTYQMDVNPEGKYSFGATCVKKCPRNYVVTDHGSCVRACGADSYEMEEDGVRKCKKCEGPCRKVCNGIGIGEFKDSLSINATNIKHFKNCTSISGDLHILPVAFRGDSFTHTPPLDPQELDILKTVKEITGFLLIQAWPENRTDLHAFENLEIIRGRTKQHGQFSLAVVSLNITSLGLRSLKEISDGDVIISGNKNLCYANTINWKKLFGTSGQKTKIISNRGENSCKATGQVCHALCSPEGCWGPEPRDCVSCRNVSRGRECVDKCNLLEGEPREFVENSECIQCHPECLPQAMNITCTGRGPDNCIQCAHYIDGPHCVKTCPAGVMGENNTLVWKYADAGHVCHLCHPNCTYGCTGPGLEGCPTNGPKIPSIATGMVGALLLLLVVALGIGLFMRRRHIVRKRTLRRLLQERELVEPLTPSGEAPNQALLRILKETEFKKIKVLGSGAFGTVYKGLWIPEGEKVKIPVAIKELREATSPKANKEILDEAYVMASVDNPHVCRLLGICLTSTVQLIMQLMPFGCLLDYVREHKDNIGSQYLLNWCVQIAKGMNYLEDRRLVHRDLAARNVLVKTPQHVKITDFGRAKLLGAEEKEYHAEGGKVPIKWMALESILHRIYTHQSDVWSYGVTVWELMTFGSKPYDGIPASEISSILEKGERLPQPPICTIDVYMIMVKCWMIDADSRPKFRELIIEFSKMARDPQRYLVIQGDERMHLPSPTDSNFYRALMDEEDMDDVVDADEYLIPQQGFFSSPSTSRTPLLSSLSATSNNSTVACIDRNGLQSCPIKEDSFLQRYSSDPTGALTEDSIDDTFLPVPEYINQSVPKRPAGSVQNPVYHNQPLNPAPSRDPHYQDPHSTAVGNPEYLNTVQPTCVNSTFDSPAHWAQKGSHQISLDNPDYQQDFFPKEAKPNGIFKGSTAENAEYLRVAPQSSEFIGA
Chain of Epidermal growth factor receptor (Homo sapiens), P00533 [L858R] (P00533 whole entry L858R): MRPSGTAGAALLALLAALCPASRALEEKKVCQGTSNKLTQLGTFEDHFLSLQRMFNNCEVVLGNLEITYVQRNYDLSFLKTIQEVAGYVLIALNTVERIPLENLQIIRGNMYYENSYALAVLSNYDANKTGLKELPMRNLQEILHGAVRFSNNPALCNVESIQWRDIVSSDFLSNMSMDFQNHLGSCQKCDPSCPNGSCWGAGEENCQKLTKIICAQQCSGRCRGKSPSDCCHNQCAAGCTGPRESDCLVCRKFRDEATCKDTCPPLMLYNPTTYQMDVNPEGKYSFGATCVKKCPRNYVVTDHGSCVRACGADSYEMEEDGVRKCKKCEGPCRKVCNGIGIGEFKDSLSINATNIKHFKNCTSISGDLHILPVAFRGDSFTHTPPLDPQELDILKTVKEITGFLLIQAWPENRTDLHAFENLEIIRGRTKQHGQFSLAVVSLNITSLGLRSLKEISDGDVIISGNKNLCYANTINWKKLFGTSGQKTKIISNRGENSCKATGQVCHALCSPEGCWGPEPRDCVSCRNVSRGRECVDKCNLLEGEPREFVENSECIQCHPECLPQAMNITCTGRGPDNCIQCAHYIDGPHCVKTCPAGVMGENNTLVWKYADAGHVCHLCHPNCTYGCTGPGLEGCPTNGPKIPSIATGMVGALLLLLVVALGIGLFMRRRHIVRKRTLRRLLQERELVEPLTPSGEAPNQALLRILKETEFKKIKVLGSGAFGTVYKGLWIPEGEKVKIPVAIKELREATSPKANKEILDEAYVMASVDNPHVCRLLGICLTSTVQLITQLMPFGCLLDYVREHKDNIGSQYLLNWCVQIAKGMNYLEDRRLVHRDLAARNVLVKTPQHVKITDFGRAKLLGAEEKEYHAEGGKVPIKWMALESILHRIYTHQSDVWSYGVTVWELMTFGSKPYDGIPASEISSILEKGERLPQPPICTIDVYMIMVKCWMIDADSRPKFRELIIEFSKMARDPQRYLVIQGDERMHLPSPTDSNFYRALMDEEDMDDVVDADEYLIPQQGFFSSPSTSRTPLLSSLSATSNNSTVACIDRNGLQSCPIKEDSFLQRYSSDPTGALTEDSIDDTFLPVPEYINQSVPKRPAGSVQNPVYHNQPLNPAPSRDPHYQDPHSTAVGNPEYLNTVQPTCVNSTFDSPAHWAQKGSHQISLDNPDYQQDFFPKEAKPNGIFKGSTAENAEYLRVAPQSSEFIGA
Chain of Casein kinase I isoform gamma-1 (Homo sapiens) (Q9HCP0 whole entry, looked up, canonical isoform): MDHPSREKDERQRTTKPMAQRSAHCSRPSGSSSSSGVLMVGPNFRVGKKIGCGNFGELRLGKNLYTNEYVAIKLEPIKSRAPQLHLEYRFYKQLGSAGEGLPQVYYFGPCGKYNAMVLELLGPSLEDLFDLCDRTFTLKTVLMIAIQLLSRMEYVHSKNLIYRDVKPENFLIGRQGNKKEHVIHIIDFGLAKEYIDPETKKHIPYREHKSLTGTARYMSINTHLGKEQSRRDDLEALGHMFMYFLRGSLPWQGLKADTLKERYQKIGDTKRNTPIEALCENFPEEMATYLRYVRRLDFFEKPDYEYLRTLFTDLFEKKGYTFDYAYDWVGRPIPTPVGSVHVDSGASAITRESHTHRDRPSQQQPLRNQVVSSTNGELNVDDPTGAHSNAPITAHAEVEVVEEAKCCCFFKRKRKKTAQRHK

Consider `Cn1cc(-n2cnc3c(NCc4nc5cc(Cl)c(Cl)cc5[nH]4)nc(N4CCOCC4)nc32)cn1`, for which the % of inhibition in experiment [1] is -151%.

Consider `CN(C)C/C=C/C(=O)Nc1ccc(C(=O)N2CCCC(Nc3ncc(Cl)c(-c4c[nH]c5ccccc45)n3)C2)cc1` (stereo not given), for which the % of control in experiment [2] worked out at 99%.

`CNC(=O)Nc1ccc(-c2nc(N3CC4CCC(C3)O4)c3cnn(C4CCC5(CC4)OCCO5)c3n2)cc1`: the % of control in [3] turned out to be 54%.

In [4], `Cc1cc([C@@H](C)Nc2ccccc2C(=O)O)c2nc(N3CCOCC3)cc(=O)n2c1` [AZD-6482] came in with a % of control of 98%.

`O=C(NOC[C@H](O)CO)c1ccc(F)c(F)c1Nc1ccc(I)cc1F`: in experiment [5], the % of control amounted to 100%.

Take `N#Cc1cccc(-c2c[nH]c3ncnc(N4CCOCC4)c23)c1`: the % of control in experiment [6] is 13%.

Take `COc1cc(C(=O)N2CC[C@@H](O)[C@@H](N)C2)cc2nc(-c3cc4ccccc4n3CC3CC3)n(C)c12`: in [7], the pXC50 is 4.3 M.

In the case of `CCC(=O)N1CCN(c2ccc(-n3c(=O)ccc4cnc5ccc(-c6cnc7ccccc7c6)cc5c43)cc2C(F)(F)F)CC1`, the % of control is 100% in [8]; 100% in experiment [9]; 100% in experiment [10]; 85% in experiment [11]; 100% in experiment [12].

Consider `C=CC(=O)Nc1cc(-n2c(=O)ccc3cnc4ccc(-c5ccc(NS(C)(=O)=O)cc5)cc4c32)ccc1C`, for which the % of control in [13] (at 1 µM) and in experiment [13] (at 10 µM) was 100% throughout.

In experiment [14], `O[C@H]1CC[C@H](Nc2ncc3nc(Nc4c(F)cc(F)cc4F)n([C@H]4CCOC4)c3n2)CC1` came in with a % of control of 100%.
